# Data reported in US11400096B2, “Small molecules for the treatment of autoimmune disorders” (Board of Regents, The University of Texas System, priority 2017, dated 2022).
# Test system: IL-17
# Assay: Inhibition of IL-17 secretion by compounds
# Assay type: cell-based
row,Structure (SMILES),IL-17 Secretion Inhibition [%]
1,CCCn1c(=O)c2nc(-c3ccc(OCc4nc5ccccc5[nH]4)cc3)[nH]c2n(CCC)c1=O [Compound P2],54.1
2,CCCn1c(=O)c2nc(-c3ccc(OCc4nc5cc(C)ccc5[nH]4)cc3)[nH]c2n(CCC)c1=O [Compound P5],64.3
3,CCOc1nc2c(N)ncnc2n1CC1CC1 [Compound P8],45.4
